According to patent US8772500B2, “TRPV3 modulators” (AbbVie Inc., priority 2011, dated 2014):

Columns and labels:
human TRPV3 = biological target: T1, human TRPV3 (Homo sapiens, UniProt Q8NET8); experiment: In vitro antagonism of recombinant human TRPV3 activation (FLIPR Tetra calcium assay, 2-APB as agonist); assay type: cell-based; settings: HEK293 cells stably expressing human TRPV3; 2-APB 80 μM; range class; read-out: IC50 (reported range)
T1 construct: expressed in transfected cells
T1 sequence (Q8NET8 1-790): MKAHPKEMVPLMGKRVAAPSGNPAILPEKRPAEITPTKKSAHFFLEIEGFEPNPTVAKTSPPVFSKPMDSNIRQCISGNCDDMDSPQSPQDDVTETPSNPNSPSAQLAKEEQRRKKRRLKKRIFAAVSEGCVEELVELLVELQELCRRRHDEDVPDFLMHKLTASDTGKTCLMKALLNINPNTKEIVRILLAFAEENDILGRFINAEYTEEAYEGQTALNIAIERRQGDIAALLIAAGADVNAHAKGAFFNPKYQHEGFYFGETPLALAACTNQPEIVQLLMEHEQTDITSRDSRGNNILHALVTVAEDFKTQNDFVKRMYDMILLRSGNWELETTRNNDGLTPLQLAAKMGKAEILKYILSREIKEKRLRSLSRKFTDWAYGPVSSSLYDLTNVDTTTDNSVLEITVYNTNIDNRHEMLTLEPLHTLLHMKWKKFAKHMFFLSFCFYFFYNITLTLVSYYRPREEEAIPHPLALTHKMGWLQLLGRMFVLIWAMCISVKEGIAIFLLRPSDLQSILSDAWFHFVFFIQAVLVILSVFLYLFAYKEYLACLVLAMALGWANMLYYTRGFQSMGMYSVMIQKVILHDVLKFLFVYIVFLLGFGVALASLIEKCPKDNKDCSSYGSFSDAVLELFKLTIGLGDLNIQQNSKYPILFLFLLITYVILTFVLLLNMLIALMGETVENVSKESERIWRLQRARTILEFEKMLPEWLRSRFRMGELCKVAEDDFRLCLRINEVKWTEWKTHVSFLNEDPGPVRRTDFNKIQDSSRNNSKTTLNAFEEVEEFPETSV
Description: Test compounds were evaluated for ability to antagonize the activation of recombinant human TRPV3 using FLIPR® Tetra cellular screening. Specifically, on the day prior to the experiment recombinant HEK293 cells that stably express human TRPV3 were removed from tissue culture flasks and plated in growth medium at 20,000 cells/well into Poly-d-lysine coated black/clear 384-well Plate (Corning, 3845) using a Multidrop® dispenser (ThermoScientific, Waltham, Mass.). Prior to the start of the assay, the medium was removed by aspiration, and cells were loaded with 30 μL no-wash FLIPR® Calcium-4 dye (λEX=470-495 nm, λEM=515-575 nm; Molecular Devices, Sunnyvale, Calif.). The cells were then incubated for 90-120 minutes in the dark prior to addition of the test compound.
A double-addition protocol was used. The test compound (i.e., the TRPV3 antagonist) was added at the 10 second time point, followed by the addition of a TRPV3 agonist three minutes later. Each test compound evaluated was first dissolved in DMSO to prepare a 10 mM stock solution. A solution (5×) of the test compound was then prepared in DPBS (Dulbecco's Phosphate Buffered Saline) and 10 μL of that solution was added to the cells at a delivery rate of 40 μL/sec. The TRPV3 agonist used to activate human TRPV3 expressed by the […] was 2-aminoethoxy-diphenyl borate (2-APB; Tocris Cookson, Ellisville, Mo.) at 80 μM. Final assay volume was 50 μL. Total length of an experimental run was 10 minutes.
Changes in fluorescence were measured over time using the FLIPR® instrument. The intensity of the fluorescence was captured and digitally transferred to an interfaced computer. The maximum response minus minimum response was calculated and expressed as the percentage of the maximum 2-APB response in the absence of antagonist. The concentration of 2-APB corresponds to its EC80.
Table 1 reports the IC50 values measured for the test compounds as human TRPV3 antagonists. […] Actual measured values are shown parenthetically after the reported range. In most cases, the values reported are average values from at least two runs (i.e., n≧2).

[1] = In vitro human microsomal stability assay; assay type: in vitro ADME
Method in brief: (§1)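 Stability readout reflects compound turnover by hepatic microsomes from Sprague-Dawley rats or from humans, according to the assay. Reactions at 37 °C contained NADPH, which was present in the zero-time plates as well.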

[2] = In vitro rat microsomal stability assay; assay type: in vitro ADME, rat (Sprague-Dawley)
Method in brief: as §1

[3] = 0.5 μM substrate, 0.25 mg/mL microsomal protein, pH 7.4, 37° C., NADPH, 30 minutes
[4] = Sprague-Dawley, rat, 0.5 h, 0.5 μM, pH 7.4

Compound	IC50 (human TRPV3) [nM]	RAT MICROSOMAL STABILITY (% REMAINING AFTER 30 MINUTES) [2, 4] [%]	further results
CN1CCC(c2ccc(OC(F)(F)F)cc2)(C(O)c2ccccn2)CC1 (stereo not drawn) [Example 145, {1-methyl-4-[4-(trifluoromethoxy)phenyl]piperidin-4-yl}(pyridin-2-yl)-methanol]	1100 to 5000	–	HUMAN MICROSOMAL STABILITY (% REMAINING AFTER 30 MINUTES) [1, 3]: 68%; RAT MICROSOMAL STABILITY (% REMAINING AFTER 30 MINUTES) [2, 3]: 42%
O[C@H](c1ccccn1)C1(c2ccc(Cl)c(Cl)c2)CCC1 [Example 26, (S)-[1-(3,4-dichlorophenyl)cyclobutyl](pyridin-2-yl)methanol]	50 to 500	1.0	HUMAN MICROSOMAL STABILITY (% REMAINING AFTER 30 MINUTES) ([1]; human, 0.5 h, 0.5 μM, pH 7.4): 6.3%
N[C@H]1CCC[C@H]1[C@@H](O)C1(c2ccc(OC(F)(F)F)cc2)CCC1 [Example 229, (R)-[(1R,2S)-2-aminocyclopentyl]{1-[4-(trifluoromethoxy)phenyl]-cyclobutyl}methanol]	1100 to 5000	80	HUMAN MICROSOMAL STABILITY (% REMAINING AFTER 30 MINUTES) ([1]; human, 0.5 h, 0.5 μM, pH 7.4): >85%
CCN(CC)c1ccc(C2(C(O)c3ccccn3)CCC2)cc1 (stereo not drawn) [Example 18, {1-[4-(diethylamino)phenyl]cyclobutyl}(pyridin-2-yl)methanol]	501 to 1000	0.27	–
O[C@H](c1ccccn1)C1(c2ccc(Cl)c(Cl)c2)CC1 [Example 231, (S)-[1-(3,4-dichlorophenyl)cyclopropyl](pyridin-2-yl)methanol]	501 to 1000	17	HUMAN MICROSOMAL STABILITY (% REMAINING AFTER 30 MINUTES) ([1]; human, 0.5 h, 0.5 μM, pH 7.4): 4.0%
OC(c1ccccn1)C1(c2ccc(OC(F)(F)F)cc2)CCOCC1 (stereo not drawn) [Example 67, pyridin-2-yl{4-[4-(trifluoromethoxy)phenyl]tetrahydro-2H-pyran-4-yl}-methanol]	1100 to 5000	47	HUMAN MICROSOMAL STABILITY (% REMAINING AFTER 30 MINUTES) ([1]; human, 0.5 h, 0.5 μM, pH 7.4): 58%
OC(c1ccccn1)C1(c2cccc(C(F)(F)F)c2)CCCO1 (stereo not drawn) [Example 106, (anti)-pyridin-2-yl{2-[3-(trifluoromethyl)phenyl]tetrahydrofuran-2-yl}-methanol]	50 to 500	1.6	HUMAN MICROSOMAL STABILITY (% REMAINING AFTER 30 MINUTES) ([1]; human, 0.5 h, 0.5 μM, pH 7.4): 3.9%
CC(c1cccc(C(F)(F)F)c1)C1(C(O)c2ccccn2)CCC1 (stereo not drawn) [Example 54, pyridin-2-yl(1-{1-[3-(trifluoromethyl)phenyl]ethyl}cyclobutyl)methanol]	> 20000	0.21	–
CC1(O)CC(c2cccc(OC(F)(F)F)c2)(C(O)c2ccccn2)C1 [Example 263, trans-3-[(S)-hydroxy(pyridin-2-yl)methyl]-1-methyl-3-[3-(trifluoromethoxy)-phenyl]cyclobutanol]	1100 to 5000	>85	–
OC(c1ncccn1)C1(c2cccc(OC(F)(F)F)c2)CCC1 (stereo not drawn) [Example 37, pyrimidin-2-yl{1-[3-(trifluoromethoxy)phenyl]cyclobutyl}methanol]	501 to 1000	7.7	–
CC1(O)CC(c2cncc(C(F)(F)F)c2)([C@H](O)c2ccccn2)C1 (stereo in doubt) [Example 309, trans-3-[(S)-hydroxy(pyridin-2-yl)methyl]-1-methyl-3-[5-(trifluoromethyl)-pyridin-3-yl]cyclobutanol]	1100 to 5000	–	HUMAN […] (% REMAINING AFTER 30 MINUTES) [1, 3]: >85%
NC1CCCC1C(O)C1(c2cccc(OC(F)(F)F)c2)CCC1 (stereo not drawn) [Example 208, (2-aminocyclopentyl){1-[3-(trifluoromethoxy)phenyl]cyclobutyl}methanol]	1100 to 5000	36	–
OC(c1ccccn1)C1(c2ccc(C(F)(F)F)cc2)CCOC1 (stereo not drawn) [Example 78, pyridin-2-yl{3-[4-(trifluoromethyl)phenyl]tetrahydrofuran-3-yl}methanol]	1100 to 5000	–	–
OC(CC1(c2ccc(Cl)cc2)CCC1)c1ccccn1 (stereo not drawn) [Example 69, 2-[1-(4-chlorophenyl)cyclobutyl]-1-(pyridin-2-yl)ethanol]	1100 to 5000	–	–
OC(c1ccccn1)C1(c2cccc(F)c2)CCOCC1 (stereo not drawn) [Example 61, [4-(3-fluorophenyl)tetrahydro-2H-pyran-4-yl](pyridin-2-yl)methanol]	5100 to 20000	–	–
CC1(O)CC(c2ccnc(C(F)(F)F)c2)(C(O)c2ccccn2)C1 [Example 302, cis-3-[(S)-hydroxy(pyridin-2-yl)methyl]-1-methyl-3-[2-(trifluoromethyl)-pyridin-4-yl]cyclobutanol]	501 to 1000	–	–
OC(c1ccccn1)C1(c2ccc(F)cc2)CCOCC1 (stereo not drawn) [Example 62, [4-(4-fluorophenyl)tetrahydro-2H-pyran-4-yl](pyridin-2-yl)methanol]	5100 to 20000	–	–
N[C@H]1CCC[C@H]1[C@@H](O)C1(c2ccc(Cl)c(Cl)c2)CCC1 [Example 218, (R)-[(1R,2S)-2-aminocyclopentyl][1-(3,4-dichlorophenyl)cyclobutyl]-methanol]	1100 to 5000	–	–
OC(c1ccccn1)C1(c2ccccc2)CCOCC1 (stereo not drawn) [Example 60, (4-phenyltetrahydro-2H-pyran-4-yl)(pyridin-2-yl)methanol]	5100 to 20000	–	–
NC1CCCCC1C(O)C1(c2ccc(Cl)c(Cl)c2)CCC1 (stereo not drawn) [Example 211, (2-aminocyclohexyl) [1-(3,4-dichlorophenyl)cyclobutyl]methanol]	5100 to 20000	–	–
NC1CCCC1C(O)C1(c2ccc(Cl)c(Cl)c2)CCC1 (stereo not drawn) [Example 215, (2-aminocyclopentyl) [1-(3,4-dichlorophenyl)cyclobutyl]methanol]	501 to 1000	–	–
NC1CCCC1C(O)C1(c2ccccc2OC(F)(F)F)CCC1 (stereo not drawn) [Example 214, (2-aminocyclopentyl){1-[2-(trifluoromethoxy)phenyl]cyclobutyl}methanol]	1100 to 5000	–	–
OC(c1ncccn1)C1(c2ccc(Cl)c(Cl)c2)CCC1 (stereo not drawn) [Example 38, [1-(3,4-dichlorophenyl)cyclobutyl](pyrimidin-2-yl)methanol]	50 to 500	9.5	–
NC1CCCCC1C(O)C1(c2cccc(OC(F)(F)F)c2)CCC1 (stereo not drawn) [Example 210, (2-aminocyclohexyl){1-[3-(trifluoromethoxy)phenyl]cyclobutyl}methanol]	1100 to 5000	–	–
N[C@H]1CCC[C@@H]1[C@H](O)C1(c2ccc(Cl)c(Cl)c2)CCC1 [Example 219, (S)-[(1S,2S)-2-aminocyclopentyl][1-(3,4-dichlorophenyl)cyclobutyl]-methanol]	1100 to 5000	–	–
OC(c1ccccn1)C1(c2ccc(F)c(F)c2)CCOCC1 (stereo not drawn) [Example 63, [4-(3,4-difluorophenyl)tetrahydro-2H-pyran-4-yl](pyridin-2-yl)methanol]	5100 to 20000	–	–
